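Cells were grown in 96-well plates and exposed to each compound for 48 hours at five concentrations; endpoints were interpolated linearly between bracketing concentrations, or set to the highest concentration if not reached. GI50 is the concentration that inhibits growth by half.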 The source made the active and inactive calls. No stated cut-off is given here; in the data, active = GI50 up to about 1.1 µM and inactive = higher.
What was measured:
Test in all cases: growth of human tumour cells (NCI), 48 h
HCC 2998 = tested on: HCC 2998
SK-MEL-2 = tested on: SK-MEL-2
SF-268 = tested on: SF-268
NCI/ADR-RES = tested on: NCI/ADR-RES
M14 = tested on: M14
OVCAR-4 = tested on: OVCAR-4
HOP-62 = tested on: HOP-62
EKVX = tested on: EKVX
NCI-H226 = tested on: NCI-H226
TK-10 = tested on: TK-10
OVCAR-8 = tested on: OVCAR-8
NCI-H23 = tested on: NCI-H23
HL-60 = tested on: HL-60
MDA-MB-435 = tested on: MDA-MB-435
LOX IMVI = tested on: LOX IMVI
SNB-19 = tested on: SNB-19
HCT-15 = tested on: HCT-15
OVCAR-5 = tested on: OVCAR-5
HOP-92 = tested on: HOP-92
IGROV-1 = tested on: IGROV-1

Compound | GI50 (HCC 2998) | GI50 (SK-MEL-2) | GI50 (SF-268) | GI50 (NCI/ADR-RES) | GI50 (M14) | GI50 (OVCAR-4) | GI50 (HOP-62) | GI50 (EKVX) | GI50 (NCI-H226) | GI50 (TK-10) | GI50 (OVCAR-8) | GI50 (NCI-H23) | GI50 (HL-60) | GI50 (MDA-MB-435) | GI50 (LOX IMVI) | GI50 (SNB-19) | GI50 (HCT-15) | GI50 (OVCAR-5) | GI50 (HOP-92) | GI50 (IGROV-1)
CC(=O)Nc1[nH]c(C#N)nc1C#N | > 100 µM (inactive) | > 100 µM (inactive) | > 100 µM (inactive) | > 100 µM (inactive) | > 100 µM (inactive) | > 100 µM (inactive) | > 100 µM (inactive) | > 100 µM (inactive) | > 100 µM (inactive) | > 100 µM (inactive) | > 100 µM (inactive) | > 100 µM (inactive) | > 100 µM (inactive) | > 100 µM (inactive) | > 100 µM (inactive) | > 100 µM (inactive) | > 100 µM | > 100 µM (inactive) | > 100 µM (inactive) | > 100 µM (inactive)
COc1cc(C2CC(C)(O)Oc3cc4c(cc32)OCO4)cc(OC)c1OC (stereo not given) | 1.31 µM (inactive) | 1.04 µM (active) | 0.962 µM (active) | 0.233 µM (active) | 0.466 µM (active) | 0.938 µM (active) | 0.501 µM (active) | 5.36 µM (inactive) | 0.891 µM (active) | 61 µM (inactive) | 0.421 µM (active) | 0.474 µM (active) | 0.247 µM (active) | 0.169 µM (active) | 0.839 µM (active) | 0.617 µM (active) | 0.521 µM | 10.9 µM (inactive) | 2.56 µM (inactive) | 0.668 µM (active)
COc1ccccc1/C=C/c1ccnc2ccccc12 | 17.5 µM (inactive) | 16.4 µM (inactive) | 14.2 µM (inactive) | 11.3 µM (inactive) | 16.2 µM (inactive) | 12.8 µM (inactive) | 16.1 µM (inactive) | 11 µM (inactive) | 15.8 µM (inactive) | 16.8 µM (inactive) | 15.4 µM (inactive) | 13.6 µM (inactive) | 7.64 µM (inactive) | 7.16 µM (inactive) | 16.3 µM (inactive) | 14.3 µM (inactive) | 12.3 µM | 17.3 µM (inactive) | 12.8 µM (inactive) | 4.97 µM (inactive)
CC(C)(C)C(=O)Oc1ccc(/C=C/C(=O)c2ccc(OC(=O)C(C)(C)C)cc2)cc1 | > 100 µM (inactive) | > 100 µM (inactive) | 74 µM (inactive) | 27.5 µM (inactive) | > 100 µM (inactive) | 56.2 µM (inactive) | 82.2 µM (inactive) | 81.1 µM (inactive) | > 100 µM (inactive) | > 100 µM (inactive) | 40.4 µM (inactive) | 35.7 µM (inactive) | 47 µM (inactive) | 55.2 µM (inactive) | 44.5 µM (inactive) | 45.2 µM (inactive) | 96.4 µM | > 100 µM (inactive) | > 100 µM (inactive) | > 100 µM (inactive)
CCOP(=O)(OCC)C(C)(CC)NC (stereo not given) | > 100 µM (inactive) | > 100 µM (inactive) | > 100 µM (inactive) | > 100 µM (inactive) | > 100 µM (inactive) | > 100 µM (inactive) | > 100 µM (inactive) | > 100 µM (inactive) | > 100 µM (inactive) | > 100 µM (inactive) | > 100 µM (inactive) | > 100 µM (inactive) | > 100 µM (inactive) | > 100 µM (inactive) | > 100 µM (inactive) | > 100 µM (inactive) | > 100 µM | > 100 µM (inactive) | > 100 µM (inactive) | > 100 µM (inactive)
C/C(=N\NC(=S)N1CCN(c2ccccn2)CC1)c1nccs1 | 0.675 µM (active) | 1.83 µM (inactive) | 0.794 µM (active) | 0.0339 µM (active) | 0.16 µM (active) | 1.03 µM (active) | 1.19 µM (inactive) | 0.12 µM (active) | 0.955 µM (active) | 1.91 µM (inactive) | 0.258 µM (active) | 0.438 µM (active) | 0.01 µM (active) | 0.521 µM (active) | 0.405 µM (active) | 1.58 µM (inactive) | 0.071 µM | 0.867 µM (active) | 2.26 µM (inactive) | 0.228 µM (active)
CC(C)C(Br)CC/C(CBr)=C(\Cl)CCl (stereo not given) | 13.4 µM (inactive) | 2.19 µM (inactive) | 4.37 µM (inactive) | 3.33 µM (inactive) | 1.79 µM (inactive) | 2.5 µM (inactive) | 16.3 µM (inactive) | 17.9 µM (inactive) | 2.75 µM (inactive) | 7.93 µM (inactive) | 3.1 µM (inactive) | 3.19 µM (inactive) | 0.585 µM (active) | 2.35 µM (inactive) | 0.355 µM (active) | 16.9 µM (inactive) | 2.11 µM | 10.4 µM (inactive) | 2.06 µM (inactive) | 1.89 µM (inactive)
CC(=O)c1ccccc1NCC(=O)Nn1cnc2ccc(S(=O)(=O)Nc3ccccc3C(C)=O)cc2c1=O | > 100 µM (inactive) | > 100 µM (inactive) | > 100 µM (inactive) | > 100 µM (inactive) | > 100 µM (inactive) | > 100 µM (inactive) | > 100 µM (inactive) | > 100 µM (inactive) | > 100 µM (inactive) | > 100 µM (inactive) | > 100 µM (inactive) | > 100 µM (inactive) | > 100 µM (inactive) | > 100 µM (inactive) | > 100 µM (inactive) | > 100 µM (inactive) | > 100 µM | > 100 µM (inactive) | > 100 µM (inactive) | 2.53 µM (inactive)
COc1c(O)c(OC)c2oc(-c3ccc(O)c(O)c3)c(OC)c(=O)c2c1O | 29.3 µM (inactive) | 5.42 µM (inactive) | 3.52 µM (inactive) | 55.1 µM (inactive) | 17.6 µM (inactive) | 55 µM (inactive) | 6.98 µM (inactive) | 29.6 µM (inactive) | 27.4 µM (inactive) | 30.5 µM (inactive) | 32.1 µM (inactive) | 32.7 µM (inactive) | 17.7 µM (inactive) | 3.13 µM (inactive) | 23.9 µM (inactive) | 53.8 µM (inactive) | 11.5 µM | 38.8 µM (inactive) | 30.5 µM (inactive) | 10.4 µM (inactive)
c1ccc2c(c1)[nH]c1c3ccccc3sc21 | > 100 µM (inactive) | > 100 µM (inactive) | > 100 µM (inactive) | > 100 µM (inactive) | > 100 µM (inactive) | > 100 µM (inactive) | > 100 µM (inactive) | 26.4 µM (inactive) | > 100 µM (inactive) | > 100 µM (inactive) | > 100 µM (inactive) | > 100 µM (inactive) | > 100 µM (inactive) | 99.1 µM (inactive) | > 100 µM (inactive) | > 100 µM (inactive) | > 100 µM | > 100 µM (inactive) | > 100 µM (inactive) | > 100 µM (inactive)
COC(=O)/C=C1/OC(c2ccccc2)=C(Cl)C1=O | 20.2 µM (inactive) | 21.3 µM (inactive) | 19.5 µM (inactive) | 25.9 µM (inactive) | 16.9 µM (inactive) | 20.7 µM (inactive) | 25.9 µM (inactive) | 19.5 µM (inactive) | 27.5 µM (inactive) | 31.9 µM (inactive) | 21.3 µM (inactive) | 19.4 µM (inactive) | 3.95 µM (inactive) | 19.3 µM (inactive) | 13.6 µM (inactive) | 31.3 µM (inactive) | 8.97 µM | 19 µM (inactive) | 20 µM (inactive) | 19.8 µM (inactive)
CCN(CC)CCN1C=CC(C)C(C(=O)O)C1C(N)=O (stereo not given) | > 100 µM (inactive) | > 100 µM (inactive) | > 100 µM (inactive) | > 100 µM (inactive) | > 100 µM (inactive) | > 100 µM (inactive) | > 100 µM (inactive) | > 100 µM (inactive) | > 100 µM (inactive) | > 100 µM (inactive) | > 100 µM (inactive) | > 100 µM (inactive) | > 100 µM (inactive) | > 100 µM (inactive) | > 100 µM (inactive) | > 100 µM (inactive) | > 100 µM | > 100 µM (inactive) | > 100 µM (inactive) | > 100 µM (inactive)
COc1ccc(/C=N\NC(=O)Nc2cccc3ccccc23)cc1 | 47.5 µM (inactive) | 9.14 µM (inactive) | 17.7 µM (inactive) | 22 µM (inactive) | 35.4 µM (inactive) | 15.6 µM (inactive) | 11 µM (inactive) | 26.9 µM (inactive) | 28.2 µM (inactive) | 20.7 µM (inactive) | > 10 µM (inactive) | 34.6 µM (inactive) | 4.82 µM (inactive) | 4.06 µM (inactive) | 13.1 µM (inactive) | 17.1 µM (inactive) | 6.79 µM | > 100 µM (inactive) | 21.4 µM (inactive) | 17.3 µM (inactive)
COc1c(OC)c(OC)c2c(=O)c(OC)c(-c3ccc4c(c3)OCO4)oc2c1OC | > 100 µM (inactive) | > 100 µM (inactive) | > 100 µM (inactive) | 86.9 µM (inactive) | > 100 µM (inactive) | > 100 µM (inactive) | > 100 µM (inactive) | 82.8 µM (inactive) | > 100 µM (inactive) | > 100 µM (inactive) | 61 µM (inactive) | > 100 µM (inactive) | 11.6 µM (inactive) | 82.4 µM (inactive) | > 100 µM (inactive) | > 100 µM (inactive) | 78.5 µM | > 100 µM (inactive) | 1.48 µM (inactive) | > 100 µM (inactive)

— ChEMBL document CHEMBL1201862, “PubChem BioAssay data set” (2004)
